Laboratory results as given in US11649220B2 (DEMOTECH.INC., priority 2018, dated 2023).

Assays:
[1] = tested on: golden hamsters (high-fat food, STZ induced); experiment: Golden hamster disease model, animal model induction group (24-week-old group): blood biochemical indexes and body weight; type: in vivo; details: for change rate of blood glucode %: 0.1 mL of 6.8 mg/mL DMSO solution + 0.25 mL whole milk by gavage once a day for 2 weeks; for change rate of body weight after deduction of DMSO blank %: DMSO blank deducted; for change of body weight/g / change rate of body weight %: after gavage once a day for 2 weeks; for HDL % / LDL % / total cholesterol % / triglyceride %: change rate, gavage once a day for 2 weeks; for average body weight at 24 weeks/g: initial weight before administration
From the text: (§1) Animals and feed: 1) 8-week-old male golden hamsters with a body weight range of 100±5 g were selected; 2) 60% high-fat food; 3) 30% high-fat food; 4) general feed: NRC standard feed, containing 5% fat, total calories 4200 kcal/kg.
Animal model induction group (24-week-old group): After STZ induction, the golden hamsters were continuous fed with 30% high-fat food for 8 weeks, blood was taken from the ocular venous plexus, and the initial body weight, blood glucose concentration, total cholesterol, LDL-c, HDL-c and triglyceride were measured, and the golden hamsters were grouped in parallel according to animal biochemical indicators, 8 in each group; 5) Gavage of compounds: 0.1 mL of solution of compound (concentration: 6.8 mg/mL, DMSO solution) and 0.25 mL of whole milk were mixed evenly and administrated by gavage once a day for 2 weeks; 6) Blank control: 0.1 mL of DMSO and 0.25 mL of whole milk were mixed and administrated by gavage, once a day for 2 weeks; 6) Blank control: 0.1 mL of DMSO were mixed with 0.25 mL of whole milk, and administrated by gavage, once a day for 2 weeks; 7) 14 days later, blood was taken from the ocular venous plexus, and the body weight, blood glucose, total cholesterol, LDL-c, HDL-c and triglyceride were measured.
(§2) Instruments: Shimadzu UV-1750 spectrophotometer, clinical determination kit (Changchun Huili Biotechnology Co., Ltd.)
(§3) Determination of blood glucose: glucose oxidase method, kit
(§4) Determination of total cholesterol (COD-PAP method), kit
(§5) Determination of low density lipoprotein cholesterol (direct method), kit
(§6) Determination of triglyceride (GP-PAP method)
(§7) Determination of high density lipoprotein (direct method), kit

[2] = In vitro free radical inhibition test (DPPH method); details: 8 μL of 20 mmol/L compound in 1 mL DPPH 0.059 mg/mL ethanol, 60 min dark, 517 nm; for inhibition rate %: DPPH; for Relative inhibition ability on free radicals: inhibition rate of AGI1067 on DPPH defined as 100
From the text: 1. In Vitro Free Radical Inhibition Test (DPPH Method)
The single electron of DPPH radical has a strong absorption at […], and its alcohol solution is purple. In the presence of a free radical scavenger, the absorption of DPPH radical is weakened or disappeared for the reason that the free radical scavenger is paired with the single electron of DPPH radical, and the degree of discoloration is quantitatively related to the number of electrons DPPH radical receives. Therefore, a spectrophotometer can be used to quickly and quantitatively analyze the free radical scavenging rate of the compound.
1) 1 mL solution of DPPH in absolute ethanol (concentration: 0.059 mg/mL) was taken; 2) 8 μL of the compound to be tested (20 mmol/L) were added; 3) after mixing well, the resultant was kept in dark at room temperature for 60 minutes, 4) the absorbance of the sample at 517 nm was measured.

[3] = tested on: Malondialdehyde (MDA) in serum; experiment: In vivo anti-lipid oxidation experiment (serum MDA, TBA method); design: inhibition rate %: concentration or dose not given beside the values; details: MAD lipid peroxidation in vivo; for inhibition rate %: relative to solvent DMSO and Chow averages; for avarage value of OD: serum, TBA method, 532 nm
From the text: Experimental principle: Malondialdehyde (MDA) in liposome degradation products could condense with thiobarbituric acid (TBA) to form a red product which has a maximum absorption peak at 532 nm. The spectrophotometer was used to measure the relative absorption value to calculate the antioxidant value.
Reagents: Malondialdehyde (MDA) test kit (article number: A003-1, […], Nanjing Jiancheng), glacial acetic acid of analytically pure grade.
Reagent preparations: 1) Reagent I: Reagent 1 in the kit was taken out from the refrigerator and subjected to natural warming until a transparent liquid is obtained; 2) Reagent II: 170 mL of double-distilled water was added to each bottle and mixed; 3) Reagent III: A dry powder in the kit was dissolved in 60 mL of double-distilled water at 90 to 100° C. After the dry powder was dissolved totally, 30 mL of glacial acetic acid was added and kept in dark place; 4) Standard: 10 nmol/mL tetraethoxypropane.
Experimental procedures: 1) Blank tube: To 2 mL centrifuge tube were added anhydrous ethanol (70 μl), Reagent I (70 μl), Reagent II (0.8 mL) and Reagent III (0.8 mL) in sequence; 2) Standard tube: To 2 mL centrifuge tube were added standard (70 μl), Reagent I (70 μl), Reagent 11 (0.8 mL) and Reagent III (0.8 mL) in sequence; 3) Measuring tube: To 2 mL centrifuge tube were added the serum to be tested and physiological saline (the total volume of serum and physiological saline is 70 μl), Reagent I (70 μl), Reagent II (0.8 mL) and Reagent III (0.8 mL) in sequence; 4) Control tubes: all samples are set up with corresponding control tubes. To a 2 mL centrifuge tube were added the serum to be tested and physiological saline (the total volume of serum and physiological saline is 70 μl), Reagent I (70 μl), Reagent II (0.8 mL) and 50% glacial acetic acid (0.8 mL) in sequence.
After the above reagents were added, the mixture was mixed homogenously. Then the mixture was left in the water bath at 95° C. for 60 minutes. The sample was centrifuged at 4000 rpm for 10 minutes. The supernatant was taken for the measurement of the OD value.
Experimental data processing: the MDA content in serum was calculated as follows: MDA=(OD valuemeasured−OD valuecontrol)/OD valuestandard*concentration of the standard Inhibition rate %=100−(ODsample-average value−average value of Chow)/(average value of the solvent DMSO−average value of Chow)*100

[4] = tested on: golden hamsters (60% high-fat food, STZ induced); experiment: Golden hamster disease model, animal model induction group (16-week-old group): blood biochemical indexes and body weight; type: in vivo; details: for change rate of blood glucose %: 0.1 mL of 6.8 mg/mL DMSO solution + 0.25 mL whole milk by gavage once a day for 2 weeks; for change rate of body weight after deduction of DMSO blank %: DMSO blank deducted; for average body weight after administration/g / change of body weight/g / change rate of body weight %: after gavage once a day for 2 weeks; for HDL % / LDL % / total cholesterol % / triglyceride %: change rate, gavage once a day for 2 weeks
Protocol: as §1
Animal model induction group (16-week-old group): 1) fed with 60% high-fat food for 2 weeks under standard environment; 2) STZ intraperitoneal injection twice every two days, 50 mg/kg each time; 3) After STZ induction, the golden hamsters were continuous fed for 1 week; 4) Blood was taken from the ocular venous plexus, and the initial body weight, blood glucose, total cholesterol, LDL-c, HDL-c and triglyceride were measured, and the golden hamsters were grouped in parallel according to animal biochemical indicators, 8 in each group; 5) Gavage of compounds: 0.1 mL of solution of compound (concentration: 6.8 mg/mL, DMSO solution) and 0.25 mL of whole milk were mixed evenly and administrated by gavage once a day for 2 weeks; 6) Blank control: 0.1 mL of DMSO and 0.25 mL of whole milk were mixed evenly and administrated by gavage once a day for 2 weeks; 7) Observation time: 14 days later, blood was taken from the ocular venous plexus, and the body weight, blood glucose, total cholesterol, LDL-c, HDL-c and triglyceride were measured.
as §2, §3, §4, §5, §6, §7

Structure (SMILES): CC(C)(Sc1cc(C(C)(C)C)c(O)c(C(C)(C)C)c1)Sc1cc(C(C)(C)C)c(O)c(C(C)(C)CCOC(=O)CCCCC2CCSS2)c1 (centres unmarked) [Compound 12, 3-(3-(tert-butyl)-5-((2-((3,5-di-tert-butyl-4-hydroxyphenyl)thio)propan-2-yl)thio)-2-hydroxyphenyl)-3-methylbutyl 5-(1,2-dithiolan-3-yl)pentanoate]
- change rate of blood glucode % [1]: −29.0%
- change rate of body weight after deduction of DMSO blank % [1]: −6.6%
- change of body weight/g [1]: -17.3 g
- change rate of body weight % [1]: −14.2%
- HDL % [1]: −72.1%
- LDL % [1]: −32.7%
- total cholesterol % [1]: −0.3%
- triglyceride % [1]: −51.7%
- average body weight at 24 weeks/g [1]: 122.4 g
- inhibition rate % [2]: 36.5%
- Relative inhibition ability on free radicals [2]: 83.6
- inhibition rate % [3]: 64.0%
- avarage value of OD [3]: 6.82
- change rate of blood glucose % [4]: −17.0%
- change rate of body weight after deduction of DMSO blank % [4]: −1.6%
- average body weight after administration/g [4]: 135.4 g
- change of body weight/g [4]: -2.3 g
- change rate of body weight % [4]: −1.6%
- HDL % [4]: −3.4%
- LDL % [4]: −35.8%
- total cholesterol % [4]: −30.7%
- triglyceride % [4]: −43.0%

Structure (SMILES): CC(O)c1cc(SSc2cc(C(C)O)c(O)c(C(C)(C)C)c2)cc(C(C)(C)C)c1O (centres unmarked) [Compound 5, 4,4′-disulfanediyl-bis(2-(tert-butyl)-6-(1-hydroxyethyl)phenol)]
- change rate of blood glucode % [1]: 11.5%
- change rate of body weight after deduction of DMSO blank % [1]: −13.6%
- change of body weight/g [1]: -25.0 g
- change rate of body weight % [1]: −21.1%
- HDL % [1]: −69.2%
- LDL % [1]: −33.9%
- total cholesterol % [1]: 6.6%
- triglyceride % [1]: −65.8%
- average body weight at 24 weeks/g [1]: 118.1 g
- inhibition rate % [2]: 48.1%
- Relative inhibition ability on free radicals [2]: 110.2
- inhibition rate % [3]: 79.6%
- avarage value of OD [3]: 6.21
- change rate of blood glucose % [4]: 19.7%
- change rate of body weight after deduction of DMSO blank % [4]: −1.9%
- average body weight after administration/g [4]: 145.2 g
- change of body weight/g [4]: 10.6 g
- change rate of body weight % [4]: 7.9%
- HDL % [4]: 38.8%
- LDL % [4]: −24.9%
- total cholesterol % [4]: −12.2%
- triglyceride % [4]: −28.5%

Structure (SMILES): CC(C)(Sc1cc(C(C)(C)C)c(O)c(C(C)(C)C)c1)Sc1cc(C(C)(C)C)c(OC(=O)CCC(=O)NCCS(=O)(=O)O)c(C(C)(C)C)c1 [Compound 26, 2-(4-(2,6-di-tert-butyl-4-((2-((3,5-di-tert-butyl-4-hydroxyphenyl)thio)propan-2-yl)thio)phenoxy)-4-oxobutanamido)ethane-1-sulfonic acid]
- change rate of blood glucode % [1]: −14.2%
- change rate of body weight after deduction of DMSO blank % [1]: −6.4%
- change of body weight/g [1]: -18.1 g
- change rate of body weight % [1]: −13.9%
- HDL % [1]: −67.5%
- LDL % [1]: −23.0%
- total cholesterol % [1]: 30.5%
- triglyceride % [1]: −5.1%
- average body weight at 24 weeks/g [1]: 130.1 g
- inhibition rate % [2]: 16.3%
- Relative inhibition ability on free radicals [2]: 37.4
- inhibition rate % [3]: 108.7%
- avarage value of OD [3]: 5.10
- change rate of blood glucose % [4]: −16.8%
- change rate of body weight after deduction of DMSO blank % [4]: −2.9%
- average body weight after administration/g [4]: 145.2 g
- change of body weight/g [4]: 9.4 g
- change rate of body weight % [4]: 6.9%
- HDL % [4]: 108.8%
- LDL % [4]: −6.2%
- total cholesterol % [4]: −9.0%
- triglyceride % [4]: 3.0%

Structure (SMILES): COC(=O)CNCCC(C)(C)c1cc(SC(C)(C)Sc2cc(C(C)(C)C)c(O)c(C(C)(C)C)c2)cc(C(C)(C)C)c1O [Compound 21]
- change rate of blood glucode % [1]: −12.4%
- change rate of body weight after deduction of DMSO blank % [1]: −6.1%
- change of body weight/g [1]: -16.4 g
- change rate of body weight % [1]: −13.6%
- HDL % [1]: −70.1%
- LDL % [1]: −21.8%
- total cholesterol % [1]: 23.5%
- triglyceride % [1]: −65.1%
- average body weight at 24 weeks/g [1]: 120.0 g
- inhibition rate % [2]: 22.3%
- Relative inhibition ability on free radicals [2]: 51.2
- inhibition rate % [3]: 53.3%
- avarage value of OD [3]: 7.23
- change rate of blood glucose % [4]: −35.5%
- change rate of body weight after deduction of DMSO blank % [4]: −1.6%
- average body weight after administration/g [4]: 142.5 g
- change of body weight/g [4]: 10.7 g
- change rate of body weight % [4]: 8.1%
- HDL % [4]: 56.3%
- LDL % [4]: 14.2%
- total cholesterol % [4]: −0.6%
- triglyceride % [4]: −6.5%

Structure (SMILES): CC(C)(Sc1cc(C(C)(C)C)c(O)c(C(C)(C)C)c1)Sc1cc(C(C)(C)C)c(O)c(C(C)(C)CCO)c1 [Compound 8, 2,6-di-tert-butyl-4-((2-((3-(tert-butyl)-4-hydroxy-5-(4-hydroxy-2-methylbutan-2-yl)phenyl)thio)propan-2-yl)thio)phenol]
- inhibition rate % [2]: 37.7%
- Relative inhibition ability on free radicals [2]: 86.5
- inhibition rate % [3]: 59.8%
- avarage value of OD [3]: 6.98
- change rate of blood glucose % [4]: 48.6%
- change rate of body weight after deduction of DMSO blank % [4]: −6.1%
- average body weight after administration/g [4]: 149.0 g
- change of body weight/g [4]: 5.3 g
- change rate of body weight % [4]: 3.7%
- HDL % [4]: 60.2%
- LDL % [4]: 11.1%
- total cholesterol % [4]: −7.6%
- triglyceride % [4]: 59.1%
